Assay results from paper PMC8887546, “Design and Synthesis of Brain Penetrant Glycopeptide Analogues of PACAP With Neuroprotective Potential for Traumatic Brain Injury and Parkinsonism” (Frontiers in drug discovery, 2022).

Tests used:
[1] = system: C57BL/6 mice, diffuse TBI; test: Novel object recognition after TBI; type: in vivo, mouse; settings: 10 mg/kg i.p. 30 min prior to TBI, 14 DPI
Protocol: 30 min prior to TBI or sham injury, mice were randomly assigned to a therapeutic group and received an intraperitoneal injection of 2LS80Mel (10 mg/kg) or sterile saline (0.25 ml). Groups were as follows: TBI-2LS80Mel n = 17; TBI-vehicle n = 17; sham n = 22 (vehicle n = 11, 2LS80Mel n = 11).
For injury induction 24 h post-surgery, mice were re-anesthetized with 5% isoflurane delivered for 3 min. The cap was removed from the injury-hub assembly and the dura was visually inspected through the hub to ensure it was intact with no debris. […] Injured mice were monitored for presence of a forearm fencing response and righting reflex times were recorded as indicators of injury severity ([Hosseini and Lifshitz, 2009]). […] After spontaneously righting, mice were placed in a heated recovery cage and monitored until they were ambulatory (approximately 5–15 min) before being returned to their piezoelectric sleep cage (see below). […]
Cognitive impairment was tested at 14 DPI using the novel object recognition (NOR) test as previously published ([Rowe et al., 2014b]; [Harrison et al., 2015]; [Saber et al., 2021]). […] For testing, the times spent actively investigating the novel and familiar object were quantified. […] If an animal climbed onto an object and sniffed into the air, this time was not calculated into the exploration of the novel object.

[2] = system: Sprague Dawley rats, 6-OHDA lesion; test: Amphetamine-induced rotations, moderate 6-OHDA hemi-parkinsonian rat model (study 2); type: in vivo; settings: more severe (40%) lesion, three injections 15 mg/kg i.p., vs vehicle
Protocol: Rats were treated with 2LS98Lac or saline (vehicle) as outlined in the Schemes in Figures 9A,B via intraperitoneal (i.p.) injection (15 mg/kg). All animals were made hemi-parkinsonian with unilateral, striatal 6-hydroxydopamine (Sigma Aldrich, St. Louis, MO) injections. After surgery, behavioral assessments were done at 2- and 4-weeks post-surgery. 24 h after the last test animals were either euthanized and whole brains were harvested for future biochemical analysis or perfused and brains collected for immunohistochemistry and stereological assessment of tyrosine hydroxylase-positive (TH+) cells remaining in the SNc. In study 1: n = 16 each group were included, and all underwent the behavioral analysis: n = 16, and for the stereology in the SNc, n = 8 each group was used. […]
In order to pharmacologically assess the degree of dopaminergic (DA) depletion in the lesioned side, animals were given amphetamine, an indirectly acting DA agonist and placed into a plexiglass cylinder (38 cm tall × 38 cm across) enclosed in an open field box ([Yue et al., 2011]). Dextro-amphetamine in sterile 0.9% saline (Sigma-Aldrich) was injected i.p. at 5 mg/kg, and rotations were recorded from above using Logitech HD web cameras connected to an Acer Aspire SWS-015 computer. An observer blinded to the groups counted rotations in both the ipsilateral and contralateral rotations for the entire 70 min period. […]

Row | SMILES | Novel object recognition (cognitive deficits) [1] | Amphetamine-induced rotations at 2 weeks post-lesion [2] | Amphetamine-induced rotations at 4 weeks post-lesion [2]
1 | CC[C@H](C)[C@H](NC(=O)CNC(=O)[C@H](CC(=O)O)NC(=O)[C@H](CO)NC(=O)[C@@H](N)Cc1c[nH]cn1)C(=O)N[C@@H](Cc1ccccc1)C(=O)N[C@H](C(=O)N[C@@H](CC(=O)O)C(=O)N[C@@H](CO)C(=O)N[C@@H](Cc1ccc(O)cc1)C(=O)N[C@@H](CO)C(=O)N[C@@H](CCCNC(=N)N)C(=O)N[C@@H](Cc1ccc(O)cc1)C(=O)N[C@@H](CCCNC(=N)N)C(=O)N[C@@H](CCCCN)C(=O)N[C@@H](CCC(N)=O)C(=O)N[C@@H](CC(C)C)C(=O)N[C@@H](C)C(=O)N[C@H](C(=O)N[C@@H](CCCCN)C(=O)N[C@@H](CCCCN)C(=O)N[C@@H](Cc1ccc(O)cc1)C(=O)N[C@@H](CC(C)C)C(=O)N[C@@H](C)C(=O)N[C@@H](C)C(=O)N[C@H](C(=O)N[C@@H](CC(C)C)C(=O)N[C@@H](CO[C@@H]1O[C@H](CO[C@H]2O[C@H](CO)[C@H](O)[C@H](O)[C@H]2O)[C@@H](O)[C@H](O)[C@H]1O)C(N)=O)C(C)C)C(C)C)[C@@H](C)O [Compound 2LS80Mel] | no TBI-induced cognitive deficits among any group |  | 
2 | [2H]C([2H])([2H])C([2H])(C([2H])([2H])[2H])[C@]([2H])(NC(=O)[C@H](C)NC(=O)[C@H](C)NC(=O)[C@H](CC(C)C)NC(=O)[C@H](Cc1ccc(O)cc1)NC(=O)[C@H](CCCCN)NC(=O)[C@H](CCCCN)NC(=O)[C@@]([2H])(NC(=O)[C@H](C)NC(=O)[C@H](CC(C)C)NC(=O)[C@H](CCC(N)=O)NC(=O)[C@H](CCCCN)NC(=O)[C@H](CCCNC(=N)N)NC(=O)[C@H](Cc1ccc(O)cc1)NC(=O)[C@H](CCCNC(=N)N)NC(=O)[C@H](CO)NC(=O)[C@H](Cc1ccc(O)cc1)NC(=O)[C@H](CO)NC(=O)[C@H](CC(=O)O)NC(=O)[C@@H](NC(=O)[C@H](Cc1ccccc1)NC(=O)[C@@H](NC(=O)CNC(=O)[C@H](CC(=O)O)NC(=O)[C@H](CO)NC(=O)[C@@H](N)Cc1c[nH]cn1)[C@@H](C)CC)[C@@H](C)O)C([2H])(C([2H])([2H])[2H])C([2H])([2H])[2H])C(=O)N[C@@H](CC(C)C)C(=O)N[C@@H](CO[C@@H]1O[C@H](CO)[C@@H](O[C@@H]2O[C@H](CO)[C@H](O)[C@H](O)[C@H]2O)[C@H](O)[C@H]1O)C(N)=O [Compound 2LS98Lac] |  | did not see a difference | did not see a difference
